The values below come from US7115750B1, “Melanin concentrating hormone antagonist” (Takeda Pharmaceutical Company Limited, priority 1999, dated 2006).

The target of the first data set is SLC-1 expressing CHO cell membrane fractions (MCH receptor) (UniProt Q99705). Kind of data set: Determination of antagonist activity using GTPgS binding assay. Type of data set: biochemical, human and rat (not specified for the table). Conditions: [35S]-GTPγS binding stimulated by MCH, SLC-1 expressing CHO cell membrane 20 μg/ml, 1 hour; read-out: Inhibition Activity (IC50 value: nM). The procedure: Membrane fraction was prepared by the following method, using the human SLC-1 expressing CHO cell clone 57 obtained in Reference Example 1-10, and the rat SLC-1 expressing CHO cell clone 44 obtained in Reference Example 1-4.
The human and rat SLC-1 expressing CHO cells (1×10^8) were scraped in buffer saline phosphate (pH 7.4) to which 5 mM EDTA (ethylenediaminetetraacetic acid) had been added, and centrifuged. 10 ml of homogenized buffer (10 mM NaHCO3, 5 mM EDTA, pH 7.5) was added to the cell pellets, and they were homogenized using a Polytron homogenizer. […]
After this reaction mixture was allowed to react for 1 hour under stirring, it was filtered under vacuum using a glass filter (GF-C), then the filter was washed 3 times with 300 μl of washing solution (50 mM Tris-HCl buffer solution pH 7.5). […] of liquid scintillator was added to the glass filter, and residual radioactivity was determined using a liquid scintillation counter.
The IC50 value of the compound was calculated from the binding inhibition rate (%), based on the definition that the binding inhibition rate (%)=(radioactivity when compound and MCH were added−radioactivity when DMSO solution was added)/(radioactivity when MCH was added−radioactivity when DMSO solution was added)×100.
For orientation: GTPγS resists hydrolysis and so accumulates on activated G proteins.
The term IC50 denotes the concentration needed to halve the response being measured. On to `COc1ccc(-c2ccc(C(=O)Nc3ccc4c(c3)CCC(CN(C)C)C4)cc2)cc1` (centres unmarked) [Example 1, N-[2-(N,N-Dimethylamino)methyl-6-tetralinyl]-(4′-methoxybiphenyl-4-yl)carboxamide], for which the IC50 worked out at 40 nM.

Take `CN(C)CC1CCc2cc(NC(=O)c3ccc(-c4ccccc4)cc3)ccc2C1.Cl` (centres unmarked) [Reference Example 25, N-[2-(N,N-Dimethylamino)methyl-6-tetralinyl]-4-biphenylylcarboxamide hydrochloride]: the IC50 was determined as 90 nM.

Test system in a further data set: not given
Experiment: not given
Settings: not given
For orientation: melting point means the temperature of the solid-liquid transition. The compound `CN(C)CC1CCc2cc(NC(=O)c3ccc(-c4ccccc4)cc3)ccc2C1.Cl` (centres unmarked) [Reference Example 25, N-[2-(N,N-Dimethylamino)methyl-6-tetralinyl]-4-biphenylylcarboxamide hydrochloride] yielded a melting point above 250 °C.

In turn, `O=C(Nc1ccc2c(c1)CCC(CCN1CCCC1)=C2)c1ccc(-c2ccccc2)cc1` [Example 204, N-[6-[2-(1-Pyrrolidinyl)ethyl]-7,8-dihydro-2-naphthalenyl][1,1′-biphenyl]-4-carboxamide] returned a melting point of 184 to 186 °C.

For the compound `CN(C)CC1CCc2cc(NC(=O)c3ccc(-c4cccnc4)cc3)ccc2C1` (centres unmarked) [Example 30, N-[6-[(N,N-Dimethylamino)methyl]-5,6,7,8-tetrahydro-2-naphthalenyl]-4-(3-pyridinyl)benzamide], the melting point was 177 to 178 °C.

`CN(C)CCNC(=O)Cc1ccc(NC(=O)c2ccc3c(c2)S(=O)(=O)c2ccccc2C3=O)cc1` [Example 194, N-[4-[2-[[2-(Dimethylamino)ethyl]amino]-2-oxoethyl]phenyl]-9,10,10-trioxo-9,10-dihydro-10λ^6-thioxanten-3-carboxamide]: the melting point is 162 to 163 °C (dec.).

Turning to `CSc1ccc(-c2ccc(C(=O)Nc3ccc4c(c3)CCC(CN(C)C)C4)cc2)cc1` (centres unmarked) [Example 36, N-[6-[(N,N-Dimethylamino)methyl]-5,6,7,8-tetrahydro-2-naphthalenyl]-4′-(methylsulfanyl)[1,1′-biphenyl]-4-carboxamide], the melting point was in the range of 178 to 180 °C.

Compound `CN(C)CC1CCc2cc(NC(=O)c3ccc(-c4ccc(N)cc4)cc3)ccc2C1` (centres unmarked) [Example 33, 4′-Amino-N-[6-[(N,N-dimethylamino)methyl]-5,6,7,8-tetrahydro-2-naphthalenyl][1,1′-biphenyl]-4-carboxamide] came in with a melting point of 148 to 150 °C.
